Source: patent US20130101527A1, “METHODS, COMPOUNDS AND PHARMACEUTICAL COMPOSITIONS FOR TREATING NEUROLOGICAL DISORDERS” (priority 2011, published 2013)

What was measured:
[1] = test system: Spontaneous Brain Activity in Healthy Adults; assay: MEG recordings of spontaneous activity, spectral analysis and ICA localization before and after self-administration of 1-octanol; assay type: in vivo, human
Description: (§1) The database comprises 29 healthy adults from 25-52 years of age (12 women and 17 men).
Spontaneous activity was recorded using a 275 channel (CTF) MEG. Six 7-min recordings were made with the eyes closed. One recording was made before self-administration of 1-Octanol. The others were made at 15, 30, 60, 90 and 120 min after.
A multi-taper approach, which provides reduced-variance calculations of frequency, was used to generate frequency spectra from each set of recordings. Changes in the power spectrum after octanol was determined by first calculating the mean spectra energy (MSE) in 2 Hz frequency bands starting at 2.5 Hz. Logarithmic transformation was applied to the power data and then the mean spectral energy (MSE) was calculated for each band before and after octanol administration. The difference in MSE before and after octanol was then calculated for each participant and the grand mean calculated (FIG. 3).
(§2) Octanol is a straight chain fatty alcohol with 8 carbon atoms CH3(CH2)7OH, and was formulated in an oral mucosal delivery format with appropriate organoleptic characteristics. It was self-administered at 0.1 mg/kg. Participants were instructed to use the spray as they would a breathe spray.
Independent component analysis (ICA) was carried out on the sensor data using the Infomax EEGLab algorithm. The magnetic field described by the ICs was localized onto a volumetric source space constructed from a population-averaged MRI using a recursive weighted minimum norm algorithm.

[2] = test system: T-type (Cav3.1) calcium channels; details: in vitro; cited from earlier work
[3] = test system: harmaline-induced tremor; details: cited from earlier work
[4] = test system: healthy adults; assay: Seven-scale questionnaire before and after octanol administration; assay type: in vivo, human; details: 0.1 mg/kg, questionnaire before, 5-10 min and 120 min after
Description: as §1, §2
A seven-scale questionnaire was used before and at 5-10 minutes and 120 minutes, respectively, after octanol administration to examine the level of relaxation, concentration, worry, sleepiness, stress, pain and the octanol taste.

[5] = cited from earlier work
[6] = test system: Spontaneous Brain Activity in Healthy Adults; assay: MEG recordings of spontaneous activity, spectral analysis and ICA localization before and after self-administration of 1-octanol; assay type: in vivo, human; details: all subjects, five times after octanol (grand mean, s.e.m), FIG. 2
[7] = test system: GABAA Receptors; details: Kurata et al., Mol Pharmacol. 1999, cited from earlier work
[8] = test system: patients with essential tremor; details: cited from earlier work
[9] = test system: TCD in an animal model; details: cited from earlier work
[10] = molecular target: T1, saliva-amylase (Homo sapiens, UniProt P0DUB6); details: cited from earlier work
T1 sequence (P0DUB6 16-511): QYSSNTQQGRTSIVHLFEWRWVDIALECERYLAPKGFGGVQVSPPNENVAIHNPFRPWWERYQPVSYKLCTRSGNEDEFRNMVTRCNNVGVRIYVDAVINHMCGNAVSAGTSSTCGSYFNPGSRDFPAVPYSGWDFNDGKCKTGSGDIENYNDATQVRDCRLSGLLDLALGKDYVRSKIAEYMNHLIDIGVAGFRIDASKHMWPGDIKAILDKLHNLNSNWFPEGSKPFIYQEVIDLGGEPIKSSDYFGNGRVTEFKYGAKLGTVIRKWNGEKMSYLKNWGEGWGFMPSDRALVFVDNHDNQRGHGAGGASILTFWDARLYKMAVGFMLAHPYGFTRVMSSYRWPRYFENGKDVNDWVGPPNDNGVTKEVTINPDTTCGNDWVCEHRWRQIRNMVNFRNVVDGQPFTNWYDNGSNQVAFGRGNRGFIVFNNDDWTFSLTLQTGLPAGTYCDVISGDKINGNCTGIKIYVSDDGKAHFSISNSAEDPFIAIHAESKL

[11] = example subject with low frequency peaks, FIG. 5
[12] = healthy adults, 0.1 mg/kg self-administered oral mucosal spray, MEG

For `CCCCCCCCO` [Example 1-octanol, 1-octanol], the “number of ICA components in the alpha range” value ([1]; after octanol administration, FIG. 6) was “increased”, the “Localization of the alpha rhythms to the posterior part of the brain (ICA)” value ([1]; before and 90 minutes after octanol, FIG. 4) was “not affected” and the “alpha range peak (8.5-10.4 Hz)” value [1, 11] was “increased”. The “delta range peaks (2.5-4.4 Hz)” value [1, 11] was “reduced”, the “abnormal, delta range activity” value [1, 12] was “reducing” and the “normal, alpha range activity” value [1, 12] was “increases”. The beta range activity ([1]; healthy subjects, MEG) was “did not promote a significant increase”, the “lower alpha band power” value ([1]; healthy subjects, MEG) was “significantly increased” and the “power spectra in the low alpha range” value ([1]; most of the subjects, FIG. 1) was “increase and broadening”. For the same molecule, the “power at lower frequencies” value ([1]; most subjects, FIG. 3) was “no change”, the low frequency peaks ([1]; some subjects, FIG. 7) was “not affected” and the gamma range activity ([1]; some subjects, MEG) was “increase”. The “higher theta range activity” value ([1]; some subjects, MEG) was “tendency for potentiating”, the “ICA components with delta range peaks” value ([1]; two hours after octanol administration, FIG. 6) was “no components” and the inferior olivary oscillations [2] was “reduces”. The “low threshold calcium currents in thalamic and inferior olivary neurons” value [2] was “reversibly reduces”, the harmaline-induced tremor [3] was “prevents” and the “general, self-reported measures of wellness” value [4] was “no effect”. For the same molecule, the accepted daily intake ([5]; as flavoring agent in food and cosmetics, FDA and Council of Europe) was 1 mg/kg, the liver toxicity ([5]; higher dosages) was “associated with liver toxicity” and the “Difference in Mean Spectral Energy, alpha range” value [6] was “clear increase”. The “Difference in Mean Spectral Energy, delta range” value [6] was “decrease”, the “low doses at which octanol is a slight allosteric potentiator of GABA” value [7] was 1-10 μm and the “action on GABA at a higher dose” value ([7]; higher dose) was “allosteric inhibitor”. The “tremor in patients with essential tremor” value [8] was “reduce tremor” and the “effect in TCD in an animal model” value [9] was “effective”.

In the case of `OC[C@H]1O[C@@H]2O[C@H]3[C@H](O)[C@@H](O)[C@@H](O[C@H]4[C@H](O)[C@@H](O)[C@@H](O[C@H]5[C@H](O)[C@@H](O)[C@@H](O[C@H]6[C@H](O)[C@@H](O)[C@@H](O[C@H]7[C@H](O)[C@@H](O)[C@@H](O[C@H]8[C@H](O)[C@@H](O)[C@@H](O[C@H]9[C@H](O)[C@@H](O)[C@@H](O[C@H]1[C@H](O)[C@H]2O)O[C@@H]9CO)O[C@@H]8CO)O[C@@H]7CO)O[C@@H]6CO)O[C@@H]5CO)O[C@@H]4CO)O[C@@H]3CO` [γ-CD, γ-cyclodextrin], the “susceptibility to saliva-amylase degradation” value [10] is listed as “highly susceptible”.
